Source: patent US20090179638A1, “ASSAY FOR IDENTIFYING INHIBITORS OF NEURONAL APOPTOTIC PATHWAYS” (AEGERA THERAPEUTICS INC., priority 2006, published 2009)

Tests used:
PC12 cells = experiment: PC12 cell death induced by chemotherapeutic drugs (LDH assay); assay type: cell-based
Protocol: FIG. 3 is a graph showing that compound 1 inhibits JNK-dependent cell death induced by chemotherapeutic drugs. Cells were infected with AdNRG at 5 MOI or treated with paclitaxel, cisplatin, or doxorubicin (Dox) at the indicated μM concentrations. At the time of treatment, compound 1 or vehicle was added to the cultures, as indicated. After 40 hours, cells were assayed for death using the LDH assay. Results are normalized relative to those obtained with 1% Triton (Tx), and represent the mean±standard deviation of a representative experiment performed in triplicate (*=P<0.01 relative to 0 μM compound 1 for each insult). Experiments were performed twice with identical results.
The ability of compound 1 to inhibit apoptosis in response to a variety of other insults, including the DNA damaging agent, cisplatin, the microtubule disruptor, paclitaxel, and doxorubicin, a topoisomerase inhibitor was investigated. […] Cisplatin-induced apoptosis has been reported to be JNK-dependent when used at low concentrations (10 μM), but JNK-independent at concentrations >25 μM (Sanchez-Perez and Perona, 1999) and consistent with this, compound 1 protected cells exposed to 10 μM, but not 50 μM, cisplatin (FIG. 3).
Cell culture, infection, transfection and immunoblotting. Sympathetic neurons were maintained and deprived of NGF as previously described (Bamji et al., 1998; Ma et al., 1992). PC12^rtTA cells were maintained and infected as previously described (Majdan et al., 1997; Salehi et al., 2002); for NRAGE, […] doxycycline was added to all plates at time of infection. Wildtype and HSF1 nullizygous immortalized mouse embryonic fibroblasts (MEFs) were maintained in DMEM containing 10% fetal calf serum, 1 μM β-mercaptoethanol, 1% non-essential amino acids, 1% L-glutamine, 1% antimycotic solution and 1% sodium pyruvate (all from GibcoBRL). Sympathetic neuron survival was assessed using the MTS assay according to the manufacturer's instructions (Promega). Analysis of PC12 cell death was determined using a lactate dehydrogenase (LDH) assay (Roche) as per the manufacturer's instructions. Transfections using plasmids or RNAi were performed using Lipofectamine 2000. Immunoblotting was performed as previously described (Majdan et al., 1997; Salehi et al., 2002).

HSP70 = HSP70 levels in SCG neurons (immunoblot); assay type: cell-based; details: 18 hours
Protocol: To address this, SCG neurons were treated with compound 1 for 18 hours then lysed and assessed for HSP70 levels by immunoblot. Uninfected PC12rtTA cells were treated in a similar manner. […] To test if the accumulation of HSP70 induced by compound 1 reflected increased steady state levels of its mRNA, RNA was isolated from PC12 cells treated with increasing concentrations of compound 1 for 18 hours and the cell lysates subjected to semi-quantitative rtPCR. […] HSP protein levels were also assessed in PC12rtTA cells infected with AdLacZ, Adp75, or AdNRG, and at the same time, exposed to compound 1.

HSP70 and HSP25 = experiment: Endogenous HSP protein expression in wild-type or HSF1 null MEFs (immunoblot); assay type: cell-based, mouse
Protocol: FIGS. 5B and 5C are photographs of Western blots showing that compound 1 binds HSP90 and causes HSF1-dependent expression of HSP70 and HSP25. A: Wild-type or HSF1 null MEFs were transfected with pGL3B-HSP70, an HSP70 promoter reporter construct, or parental vector (pGL3B), then treated with 40 μM of compound 1 for 24 hours and analyzed for luciferase content as described in Materials and Methods (*=P<0.005 relative to 0 compound 1; **=P<0.005 relative to wild-type MEFs treated with 40 uM compound 1. B: Wild-type or HSF1 null MEFs were treated with increasing concentrations of compound 1 for 24 hours, cells were lysed, normalized for protein content, and analyzed for levels of HSP70, HSP40, and HSP25 as indicated. C: Compound 6-conjugated Sepharose beads were incubated with purified HSP90 for 2 hours, washed, and levels of bound HSP90 were analyzed by immunoblot. Con=Control beads, Alone=Compound 6-beads alone, Comp=[…]+competing compound 1 (at 80 μM). Experiments in Panel A-C were performed three times with identical results.
Induction of cell stress results in the interaction of HSP90 with misfolded proteins and disrupts its association with HSF1, allowing it to bind and activate HSP70 and HSP25 promoters (Sanchez-Perez and Perona, 1999). […]

HSP70 promoter = experiment: HSP70 transcriptional reporter constructs in PC12 cells; assay type: cell-based; details: transfected PC12 cells
HSP90 = experiment: ATP-Sepharose interaction assay; assay type: binding; details: purified HSP90 pre-incubated with substance
Protocol: Bound HSP90 was eluted HSP90 content was determined by immunoblotting.
ATP-Sepharose Interaction Assays. These were performed essentially as described in (Grenert et al., 1997). […] 25 ul of ATP-sepharose beads were added and the reactions were incubated for 30 min at 30° C. After thorough washing with ice-cold incubation buffer, bound proteins were eluted in sample buffer and HSP90 content was determined by immunoblotting.

Akt = Akt levels in PC12 cells (immunoblot); assay type: cell-based; details: 16 hours

NS(=O)(=O)c1nn2cc(-c3ccccc3)nc2s1 [Compound 1]
protection against cisplatin-induced cell death (PC12 cells; cisplatin 10 μM): protected | protection against cisplatin-induced cell death (PC12 cells; cisplatin 50 μM): not 50 μM | protection against doxorubicin-induced cell death (PC12 cells; doxorubicin): did not offer any protection | apoptosis induced by paclitaxel (PC12 cells; paclitaxel 10 μM and 50 μM): effectively reduced | cellular HSP70 levels (HSP70): large increase | expression of endogenous HSP70 and HSP25 (HSP70 and HSP25; MEFs lacking HSF1, 24 hours): not in MEFs lacking HSF1 | expression of endogenous HSP70 and HSP25 (HSP70 and HSP25; wild type MEFs, 24 hours): strong induction | activity of HSP70 transcriptional reporter constructs (HSP70 promoter): stimulated | binding of HSP90 to gATP-Sepharose (HSP90): does not decrease the amount of HSP90 bound to gATP-Sepharose but rather increased their association | phosphorylated Akt (pAkt) levels (Akt): significantly enhanced | total Akt levels (Akt): reduced total Akt only slightly
